The term IC50 denotes the concentration needed to halve the response being measured.

The values below come from patent US9296734B2 (AMGEN INC., priority 2013, dated 2016).

The target of one assay is Cathepsin D (Cat D) (Homo sapiens (Human), UniProt P07339). Put plainly: In vitro enzymatic Cathepsin D (Cat D) FRET assay. Type of assay: biochemical. Conditions: average IC50, cathepsin D enzyme assay; read-out: CatD IC50. The method, then: In Vitro Enzymatic Cathepsin D (Cat D) FRET (Fluorescence Resonance Energy Transfer) Assay
Chain of Cathepsin D (Cat D) (P07339 65-412, species assumed): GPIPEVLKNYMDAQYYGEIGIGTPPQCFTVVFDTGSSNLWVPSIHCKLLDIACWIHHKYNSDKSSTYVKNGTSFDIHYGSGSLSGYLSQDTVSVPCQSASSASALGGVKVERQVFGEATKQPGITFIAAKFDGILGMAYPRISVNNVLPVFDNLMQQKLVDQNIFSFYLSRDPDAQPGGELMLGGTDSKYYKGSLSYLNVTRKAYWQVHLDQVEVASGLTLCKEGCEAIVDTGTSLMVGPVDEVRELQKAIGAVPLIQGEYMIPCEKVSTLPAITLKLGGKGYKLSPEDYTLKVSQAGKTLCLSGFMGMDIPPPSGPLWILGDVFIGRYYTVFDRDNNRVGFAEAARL
Recombinant Cat D was expressed in CHO cells. The assay buffer for CathepsinD is 0.05 M citrate pH 3.5, 10% DMSO final, 5 mM CHAPS. […] The assays are effectively started by the addition of different FRET substrates (20 nM for Cat D) and the combination is incubated for one hour. The FRET assay is terminated with by addition of Tris buffer, which raises the pH to neutrality, and the fluorescence is determined. The FRET substrate is a peptide with commercially available fluorophore and quencher, on opposite sides of the BACE cleavage site. […] Proteolytic cleavage of the FRET substrate releases quenching of fluorescence (Cat D excitation 500 nm and emission 580 nm).
In addition, the cathepsin D and cathepsin E assays are described in PCT publication WO2011069934.
Take `NC1=N[C@](CF)(c2cc(NC(=O)c3ccc(Br)cn3)cc(F)c2F)C[C@@H](C(F)(F)F)O1` [Example 157, N-(3-((4S,6S)-2-amino-4-(fluoromethyl)-6-(trifluoromethyl)-5,6-dihydro-4H-1,3-oxazin-4-yl)-4,5-difluorophenyl)-5-bromopicolinamide]: the IC50 is greater than 400 µM.

As to `NC1=N[C@](CF)(c2cc(NC(=O)c3ccc(C#CC4CC4)cn3)cc(F)c2F)C[C@@H](C(F)(F)F)O1` [Example 158, N-(3-((4S,6S)-2-amino-4-(fluoromethyl)-6-(trifluoromethyl)-5,6-dihydro-4H-1,3-oxazin-4-yl)-4,5-difluorophenyl)-5-(cyclopropylethynyl)picolinamide], the IC50 is greater than 400 µM.

With `CC#CCOc1ccc(C(=O)Nc2cc(F)c(F)c([C@]3(CF)C[C@@H](C(F)(F)F)OC(N)=N3)c2)nc1` [Example 160, N-(3-((4S,6S)-2-amino-4-(fluoromethyl)-6-(trifluoromethyl)-5,6-dihydro-4H-1,3-oxazin-4-yl)-4,5-difluorophenyl)-5-(but-2-yn-1-yloxy)picolinamide], the IC50 was greater than 400 µM.

For the molecule `N#Cc1cnc2c(Nc3cc(F)c(F)c([C@]4(CF)C[C@@H](C(F)(F)F)OC(N)=N4)c3)nccc2c1` [Example 162, 8-((3-((4S,6S)-2-amino-4-(fluoromethyl)-6-(trifluoromethyl)-5,6-dihydro-4H-1,3-oxazin-4-yl)-4,5-difluorophenyl)amino)-1,7-naphthyridine-3-carbonitrile], the IC50 was greater than 400 µM.

As for `COc1cnc2c(Nc3cc(F)c(F)c([C@]4(C)C[C@@H](C(F)(F)F)OC(N)=N4)c3)nccc2n1` [Example 178, (4S,6S)-4-(2,3-difluoro-5-((2-methoxypyrido[3,4-b]pyrazin-5-yl)amino)phenyl)-4-methyl-6-(trifluoromethyl)-5,6-dihydro-4H-1,3-oxazin-2-amine], the IC50 stood at 519 µM.

In the case of `COc1cnc2c(Nc3cc(F)c(F)c([C@]4(C)C[C@@H](C(F)(F)F)OC(N)=N4)c3)nccc2c1` [Example 179], the IC50 is greater than 400 µM.

Staying with this assay, now noted: average; read-out: CatD IC50.
As to `Cc1cc(OC(F)F)cnc1C(=O)Nc1cc(F)c(F)c([C@]2(C)C[C@@H](C(F)(F)F)OC(N)=N2)c1` [Example 174, N-(3-((4S,6S)-2-amino-4-methyl-6-(trifluoromethyl)-5,6-dihydro-4H-1,3-oxazin-4-yl)-4,5-difluorophenyl)-5-(difluoromethoxy)-3-methylpicolinamide], the IC50 was greater than 400 µM.

With `CC#CCOc1cnc(C(=O)Nc2cc(F)c(F)c([C@]3(C)C[C@@H](C(F)(F)F)OC(N)=N3)c2)c(C)c1` [Example 188, N-(3-((4S,6S)-2-amino-4-methyl-6-(trifluoromethyl)-5,6-dihydro-4H-1,3-oxazin-4-yl)-4,5-difluorophenyl)-5-(but-2-yn-1-yloxy)-3-methylpicolinamide], the IC50 is 286 µM.

Consider `Cc1cc(OCC(F)(F)F)cnc1C(=O)Nc1cc(F)c(F)c([C@]2(C)C[C@@H](C(F)(F)F)OC(N)=N2)c1` [Example 194, N-(3-((4S,6S)-2-amino-4-methyl-6-(trifluoromethyl)-5,6-dihydro-4H-1,3-oxazin-4-yl)-4,5-difluorophenyl)-3-methyl-5-(2,2,2-trifluoroethoxy)picolinamide], for which the IC50 is greater than 400 µM.

Consider `Cc1nc(OCC(F)(F)F)cnc1C(=O)Nc1cc(F)c(F)c([C@]2(C)C[C@@H](C(F)(F)F)OC(N)=N2)c1` [Example 197, N-(3-((4S,6S)-2-amino-4-methyl-6-(trifluoromethyl)-5,6-dihydro-4H-1,3-oxazin-4-yl)-4,5-difluorophenyl)-3-methyl-5-(2,2,2-trifluoroethoxy)pyrazine-2-carboxamide], for which the 50% inhibitory concentration (IC50) was greater than 400 µM.

In the case of `C[C@@]1(c2cc(NC(=O)c3ncc(C(F)F)cc3Cl)cc(F)c2F)C[C@@H](C(F)(F)F)OC(N)=N1` [Example 198, N-(3-((4S,6S)-2-amino-4-methyl-6-(trifluoromethyl)-5,6-dihydro-4H-1,3-oxazin-4-yl)-4,5-difluorophenyl)-3-chloro-5-(difluoromethyl)picolinamide], the IC50 was greater than 400 µM.

In the case of `C[C@@]1(c2cc(NC(=O)c3ccc(C(F)F)cn3)cc(F)c2F)C[C@@H](C(F)(F)F)OC(N)=N1` [Example 200, N-(3-((4S,6S)-2-amino-4-methyl-6-(trifluoromethyl)-5,6-dihydro-4H-1,3-oxazin-4-yl)-4,5-difluorophenyl)-5-(difluoromethyl)picolinamide], the IC50 was determined as 997 µM.

In the case of `COc1cnc(C(=O)Nc2cc(F)c(F)c([C@]3(C)C[C@@H](C(F)(F)F)OC(N)=N3)c2)c(C)c1` [Example 202, N-(3-((4S,6S)-2-amino-4-methyl-6-(trifluoromethyl)-5,6-dihydro-4H-1,3-oxazin-4-yl)-4,5-difluorophenyl)-5-methoxy-3-methylpicolinamide], the IC50 stood at 1140 µM.

Consider `C[C@@]1(c2cc(NC(=O)c3ccc(Cl)cn3)cc(Cl)c2F)C[C@@H](C(F)(F)F)OC(N)=N1` [Example 207, N-(3-((4S,6S)-2-amino-4-methyl-6-(trifluoromethyl)-5,6-dihydro-4H-1,3-oxazin-4-yl)-5-chloro-4-fluorophenyl)-5-chloropicolinamide], for which the IC50 was found to be 386 µM.

`Cc1cc(C#N)cnc1C(=O)Nc1cc(Cl)c(F)c([C@]2(C)C[C@@H](C(F)(F)F)OC(N)=N2)c1` [Example 210, N-(3-((4S,6S)-2-amino-4-methyl-6-(trifluoromethyl)-5,6-dihydro-4H-1,3-oxazin-4-yl)-5-chloro-4-fluorophenyl)-5-cyano-3-methylpicolinamide]: the IC50 came to 416 µM.

As for `COc1cnc(C(=O)Nc2cc(Cl)c(F)c([C@]3(C)C[C@@H](C(F)(F)F)OC(N)=N3)c2)c(C)n1` [Example 215, N-(3-((4S,6S)-2-amino-4-methyl-6-(trifluoromethyl)-5,6-dihydro-4H-1,3-oxazin-4-yl)-5-chloro-4-fluorophenyl)-5-methoxy-3-methylpyrazine-2-carboxamide], the IC50 was greater than 400 µM.

In the case of `Cc1cc(C(F)F)cnc1C(=O)Nc1cc(C)c(F)c([C@]2(CF)C[C@@H](C(F)(F)F)OC(N)=N2)c1` [Example 216, N-(3-((4S,6S)-2-amino-4-(fluoromethyl)-6-(trifluoromethyl)-5,6-dihydro-4H-1,3-oxazin-4-yl)-4-fluoro-5-methylphenyl)-5-(difluoromethyl)-3-methylpicolinamide], the IC50 is greater than 400 µM.

Consider `Cc1cc(NC(=O)c2ccc(C(F)F)cn2)cc([C@]2(CF)C[C@@H](C(F)(F)F)OC(N)=N2)c1F` [Example 221, N-(3-((4S,6S)-2-amino-4-(fluoromethyl)-6-(trifluoromethyl)-5,6-dihydro-4H-1,3-oxazin-4-yl)-4-fluoro-5-methylphenyl)-5-(difluoromethyl)picolinamide], for which the IC50 came to 992 µM.

Regarding `Cc1cc(NC(=O)c2ccc(F)cn2)cc([C@]2(CF)C[C@@H](C(F)(F)F)OC(N)=N2)c1F` [Example 223, N-(3-((4S,6S)-2-amino-4-(fluoromethyl)-6-(trifluoromethyl)-5,6-dihydro-4H-1,3-oxazin-4-yl)-4-fluoro-5-methylphenyl)-5-fluoropicolinamide], the IC50 is 833 µM.

Turning to `COc1ccc(C(=O)Nc2cc(C)c(F)c([C@]3(CF)C[C@@H](C(F)(F)F)OC(N)=N3)c2)nc1` [Example 229, N-(3-((4S,6S)-2-amino-4-(fluoromethyl)-6-(trifluoromethyl)-5,6-dihydro-4H-1,3-oxazin-4-yl)-4-fluoro-5-methylphenyl)-5-methoxypicolinamide], the IC50 came to 1120 µM.
